Assays:
Format in all cases: organism-based, Chlorocebus sabaeus, Vero C1008
[1] = tested on: dengue virus type 2; experiment: Functional assay to measure dose dependent changes in antiviral-drug inhibitory efficacy against Dengue virus type 2 New Guinea C in Vero E6 miRFP670 cells (cotreated with P-gp inhibitor, CP100356). Cells are treated with antiviral candidates that are serially diluted, following infection, cells are fixed. EC50 is reported via analysis of fluorescence intensity using high-content imager. The …
[2] = tested on: Zika virus; experiment: (§1) Functional CPE-based assay to measure dose dependent changes in antiviral-drug inhibitory efficacy against Zika virus MR766 in Vero E6 miRFP670 cells. Cells are treated with antiviral candidates that are serially diluted. EC50 is reported via analysis of MTS assay as a readout of CPE. The assay has been performed by KU Leuven.; settings: Zika virus; for EC50: Vero C1008
[3] = tested on: Zika virus; experiment: as §1, with “cells (cotreated with P-gp inhibitor, CP100356).” for “cells.”; settings: Zika virus; for EC90: P-gp concentration 500 nM, P-gp inhibitor CP100356

`O=C(Nc1cc(Cl)cc(C(=O)Nc2ccc(C3CCNCC3)cc2)c1)OCc1ccccc1` was tested, and the EC90 ([1]; Baseline response 0 %, Hill slope -20.516, Maximum measured 137.543 %, Maximum response 100 %, Minimum measured 2.498 %, P-gp concentration 500 nM, R squared 0.862, P-gp inhibitor CP100356) was 1.68 µM, the EC50 ([1]; Dengue virus, Vero C1008) was 2.86 µM and the EC90 ([1]; Dengue virus, Vero C1008) was 3.23 µM. It also gave an EC50 ([1]; vero c1008) of 1.51 µM, an EC50 [2] greater than 50 µM and an EC90 ([2]; Vero C1008, Maximum measured […], Minimum measured -3.389 %) greater than 50 µM. It also gave an EC50 ([3]; Vero C1008) greater than 50 µM and an EC90 ([3]; Vero C1008, Maximum measured 2.883 %, Minimum measured -3.299 %) greater than 50 µM.
`O=C(Nc1cc(Cl)cc(-c2ccc3cc(C(=O)O)[nH]c3c2)c1)OCc1ccccc1` was tested, and the EC50 ([1]; Dengue virus, Vero C1008) was 27.6 µM, the EC90 ([1]; Dengue virus, Vero C1008, Baseline response 0 %, Hill slope -2.588, Maximum measured 127.292 %, Maximum response 100 %, Minimum measured 18.339 %, P-gp concentration 500 nM, R squared 0.622, P-gp inhibitor CP100356) was greater than 50 µM and the EC50 [2] was greater than 50 µM. It also gave an EC90 ([2]; Vero C1008, Maximum measured -0.377 %, Minimum measured -2.566 %) greater than 50 µM, an EC50 ([3]; Vero C1008) greater than 50 µM and an EC90 ([3]; Vero C1008, Baseline response 0 %, Hill slope 0.219, Maximum measured 11.412 %, Maximum response 100 %, Minimum measured -1.306 %, R squared 0.087) greater than 50 µM.
`CNC(=O)[C@H](Nc1cc(CN)cc(C(=O)O)c1)c1cc(Cl)cc(C2CC2)c1` was tested, and the EC50 ([1]; Dengue virus, Vero C1008) was greater than 50 µM, the EC90 ([1]; Dengue virus, Vero C1008, Maximum measured 120.74 %, Minimum measured 102.141 %, P-gp concentration 500 nM, P-gp inhibitor CP100356) was greater than 50 µM and the EC50 [2] was greater than 50 µM. The EC90 ([2]; Vero C1008, Maximum measured 1.859 %, Minimum measured -2.673 %) was greater than 50 µM.
With `C[C@@]1(c2cccc(CN)c2)C[C@H]1c1cc(Cl)cc(NC(=O)OCc2ccccc2)c1` the EC50 ([1]; Dengue virus, Vero C1008) was 2.11 µM, the EC90 ([1]; Dengue virus, Vero C1008, Baseline response 0 %, Hill slope -1.211, Maximum measured 80.402 %, Maximum response 100 %, Minimum measured 6.127 %, P-gp concentration 500 nM, R squared 0.862, P-gp inhibitor CP100356) was greater than 6.25 µM and the EC50 [2] was greater than 50 µM. For the same compound, the EC90 ([2]; Vero C1008, Maximum measured 2.64 %, Minimum measured -3.015 %) was greater than 50 µM.
Work on `O=C(O)c1cc2cc(-c3cc(Cl)cc(C4CC4)c3)ccc2[nH]1` yielded an EC50 ([1]; Dengue virus, Vero C1008) of 45.8 µM, an EC90 ([1]; Dengue virus, Vero C1008, Baseline response 0 %, Hill slope -21.982, Maximum measured 163.66 %, Maximum response 100 %, Minimum measured 12.537 %, P-gp concentration 500 nM, R squared 0.152, P-gp inhibitor CP100356) greater than 50 µM and an EC50 [2] greater than 50 µM. It also gave an EC90 ([2]; Vero C1008, Baseline response 0 %, Hill slope 0.633, Maximum measured 10.894 %, Maximum response 100 %, Minimum measured 0.566 %, R squared 0.67) greater than 50 µM, an EC50 ([3]; Vero C1008) greater than 50 µM and an EC90 ([3]; Vero C1008, Baseline response 0 %, Hill slope 0.262, Maximum measured 7.755 %, Maximum response 100 %, Minimum measured -1.169 %, R squared 0.013) greater than 50 µM.
`CCc1cc(Br)cc2c(Cc3ccc(-c4nnn[nH]4)cc3)c[nH]c12` gave an EC90 ([1]; Baseline response 0 %, Hill slope -20.83, Maximum measured 154.882 %, Maximum response 100 %, Minimum measured 18.569 %, P-gp concentration 500 nM, R squared 0.389, P-gp inhibitor CP100356) greater than 25 µM, an EC50 ([1]; Dengue virus, Vero C1008) of 24.8 µM and an EC90 ([1]; Dengue virus, Vero C1008, Baseline response 0 %, Hill slope -25.951, Maximum measured 114.444 %, Maximum response 100 %, Minimum measured 0.23 %, P-gp concentration 500 nM, R squared 0.943, P-gp inhibitor CP100356) of 26.9 µM. It also gave an EC50 ([1]; vero c1008) of 23.3 µM, an EC50 [2] greater than 50 µM and an EC90 ([2]; Vero C1008, Baseline response 0 %, Hill slope -0.347, Maximum measured 5.052 %, Maximum response 100 %, Minimum measured -3.467 %, R squared 0.177) greater than 50 µM. It also gave an EC90 ([2]; Vero C1008, Maximum measured -3.488 %, Minimum measured -8.239 %) greater than 50 µM, an EC50 ([3]; Vero C1008) greater than 50 µM and an EC90 ([3]; Vero C1008, Maximum measured 2.453 %, Minimum measured -6.07 %) greater than 50 µM.

Source: ChEMBL document CHEMBL5661943, “ASAP - In vitro antiviral effect” (2024)
